# Measured values taken from patent publication US20240060990A1, “SPATIAL SIGNALING NETWORKS FOR MULTIPLEXED DRUG RESPONSE MEASUREMENT AND MODELING” (Georgia Tech Research Corporation, priority 2022, published 2024).
# Entries after “also recorded” stand apart in the source; their conditions may differ.
# Assays:
# p-EGFR (Y1068) = conditions: PC9 cells; cited from earlier work
# WNT1 = test: RapMIF multiplexed immunofluorescence in PC9 cells, WNT1; format: cell-based, human; conditions: 40 nM, 48 hours vs control
# Source text: RapMIF: The RapMIF setup consisted of an autosampler that transferred antibodies and performed washes of the sample automatically and controlled by a custom-written python code (FIGS. 10A-10D). The buffers used during the procedure are 1×PBS (D8537, Sigma), CSM, and Fluorophore bleaching solution. PBS 1× was the wash buffer for the stabilization of the cells and the tubes. CSM was the imaging buffer that helped in the annealing of antibodies with the cells. Fluorophore bleaching solution was the strip buffer used to remove staining after each cycle. The walls on the 96-well plate for the antibodies were pre-washed with 1×PBS. The well plate was covered with foil stickers to ensure a dark condition. […] Once the cells were mounted and the antibodies and buffers were ready for transfer, automatic staining was done by running Python code. […]
# Cell multiplexing: Each coverslip prepared with cells was stained with 25 markers using a total of 11-12 cycles (FIG. 10C). […] To quantify the frequencies belonging to the signal that disappears after bleaching, a Fourier analysis of before and after bleaching was performed to indicate the difference in frequencies belonging to the signal.
# Image intensity: From nuclei and cytosol cell masks, the mean intensity of markers in each cell area was calculated. […]
# p-ERK(T202/Y204) = test: p-ERK immunofluorescence in HCC827 cells; format: cell-based, human; conditions: 100 nM
# Description: Following that, the cells were then fixed and permeabilized with 1.6% formaldehyde in 1×PBS for 10 minutes at RT and 0.5% Triton X-100 for 10 minutes at RT, respectively. The cells were then blocked using a cell staining medium (CSM) containing 0.5% BSA, and 0.02% Sodium Azide in PBS. […] HCC827 cells were stained with p-ERK overnight followed by 1-hour incubation of secondary antibodies at RT, and 10 mins DAPI staining. The cells were then imaged at 40× magnification, and the intensity levels were analyzed. […] The coverslip was mounted to an acrylic holder for multiple cycles of staining.
# NSCLC patients = conditions: phase 3 clinical trial, 80 mg once daily, vs other EGFR-TKI drugs; cited from earlier work
structure (smiles),measurement,setting,value
C=CC(=O)Nc1cc(Nc2nccc(-c3cn(C)c4ccccc34)n2)c(OC)cc1N(C)CCN(C)C [Osimertinib],p-EGFR (Y1068) level,p-EGFR (Y1068),failed to alter the p-EGFR (Y1068)
same,WNT1 signaling,WNT1,increased the WNT1 signaling
same,p-ERK level,p-ERK(T202/Y204); 6-hour treatment,suppressed initially
same,p-ERK level,p-ERK(T202/Y204); 12-hour treatment,increased
same,overall survival,NSCLC patients,longer; also recorded: extended
same,progression-free survival,NSCLC patients,longer; also recorded: extended
